From US9586959B2, “Substituted tricyclic heterocycles as histamine 4 receptor inhibitors” (C&C RESEARCH LABORATORIES, priority 2011, dated 2017) come the findings set out here.

For data set [1], the target named is human histamine 4 receptor (hH4R) (Homo sapiens (Human), UniProt Q9H3N8). Put plainly: Binding affinity of human histamine 4 receptor (hH4R), [3H] labeled histamine displacement. The settings on record: hH4R-overexpressed cell membrane, [3H] histamine. As to the method:
20 μL of the prepared compound solution was transferred to each well of a 96-well plate, and then 20 μL of 100 μM histamine diluted with analysis buffer solution and 1% DMSO were transferred to each well to calculate non-specific binding and total binding degree. 25 μg of human histamine 4 receptor-overexpressed cell membrane (PerkinElmer) was diluted into 160 μL of analysis buffer solution and that was transferred to each well. [^3H] labeled histamine (PerkinElmer) was diluted into 1 μM concentration, 20 μL was allocated in each well, and then it was kept in a 27° C. incubator for 30 minutes. After the reaction, 200 μL of the mixture was transferred to a glass fiber plate in which 0.5% polyethylene amine was presoaked, and then non-binding [^3H] labeled histamine was removed in vacuum. After 4 times washing with 200 μL of washing buffer solution (50 mM tris-HCl, pH 7.4), the plate was dried in a 37° C. oven for 18 hours. 100 μL of betascint cocktail solution was added to each well, and after 1 hour CPM (count per minute) value of [^3H] labeled histamine was measured by using Wallac beta-counter TriLux.

For data set [2], the target named is human histamine 3 receptor (hH3R) (Homo sapiens (Human), UniProt Q9Y5N1). Put plainly: Binding affinity of human histamine 3 receptor (hH3R), [3H] labeled N-α-methylhistamine displacement. The conditions noted are these: hH3R-overexpressed cell membrane, [3H] N-α-methylhistamine. As to the method: 10 μL of the prepared compound solution was allocated in each well of a 96-well plate, and then 10 μL of 200 μM (R)(−)-α-methylhistamine (RaMH) diluted with analysis buffer and 1% of DMSO were transferred to each well to calculate non-specific binding and total binding degree. 15 μg of human histamine 3 receptor-overexpressed cell membrane (PerkinElmer) was diluted with 180 μL of analysis buffer solution (50 mM tris-HCl pH 7.4, 5 mM MgCl2), and that was transferred to each well. [^3H] labeled Na-methylhistamine (PerkinElmer) was diluted into […], 10 μL of that was added to each well, and then it was kept in a 27° C. incubator for 30 minutes. After the reaction, 200 μL of the mixture was transferred to a glass fiber plate in which 0.5% polyethylene amine was presoaked, and then non-binding [^3H] labeled Na-methylhistamine was removed in vacuum. After 5 times washing with 200 μL of washing buffer solution (50 mM tris-HCl, pH 7.4), the plate was dried in a 37° C. oven for 18 hours. 100 μL of betascint cocktail solution was added to each well, and after 1 hour CPM of [^3H] labeled N-α-methylhistamine was measured by using Wallac beta-counter TriLux. The binding affinity (IC50) of the human histamine 3 receptor for the present invention was analyzed by an Excel program, and the results of analysis are shown in Table 2.
Chain of human histamine 3 receptor (hH3R) (Q9Y5N1 whole entry): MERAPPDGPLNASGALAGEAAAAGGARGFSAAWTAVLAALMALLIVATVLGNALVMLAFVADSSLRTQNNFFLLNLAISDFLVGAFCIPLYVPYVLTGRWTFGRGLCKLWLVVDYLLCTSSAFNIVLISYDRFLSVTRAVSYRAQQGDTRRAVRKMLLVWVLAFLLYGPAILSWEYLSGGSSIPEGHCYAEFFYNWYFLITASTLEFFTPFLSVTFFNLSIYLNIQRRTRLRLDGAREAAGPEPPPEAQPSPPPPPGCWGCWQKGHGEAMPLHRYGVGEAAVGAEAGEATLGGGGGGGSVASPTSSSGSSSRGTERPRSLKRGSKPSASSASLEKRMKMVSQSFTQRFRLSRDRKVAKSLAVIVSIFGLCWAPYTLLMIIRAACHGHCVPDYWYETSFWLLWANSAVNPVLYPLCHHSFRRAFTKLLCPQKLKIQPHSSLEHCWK

Data set [3] can be described thus: Solubility in artificial gastrointestinal tract solution. The conditions noted are these: artificial gastrointestinal tract solution, thermodynamic from solid; for solubility at 1 h: fassgf or other biorelevant, first solution pH 1.2, 2 mg/mL sample, 37° C. 1 hour; for solubility at 2 h: fassif, second solution pH 6.5, 2 mg/mL sample, 37° C. 2 hours. The class given is physicochemical. Here is the method:
2.0 g of sodium chloride was added in 7.0 mL of 37% of hydrochloric acid and water to make the total volume of 1 L. The pH was adjusted to exactly 1.2 with 1N sodium hydroxide or 1N hydrochloric acid. A small amount (20 mL) of this solution was taken and added in 25 μL of triton X-100 to make the total volume of 25 mL.
0.348 g sodium hydroxide, 3.438 g NaH2PO4, 6.186 g sodium chloride and water were added to make the total volume of 1 L. The pH was adjusted to exactly 6.5 with 1N sodium hydroxide or 1N hydrochloric acid. A small amount (20 mL) of this solution was taken and 41.25 mg of sodium taurocholate hydrate and 25 μL of 750 mM lecithin dissolved in ethanol was added to make the total volume of 25 mL.
The heated test sample solutions were filtered to remove undissolved compounds therein. Finally, 100 μL of the completely compound-dissolved solution was sampled and 100 μL of CH3CN was added thereto to make the test sample solution. For each analysis of the test sample solution, the solubility was measured by using liquid chromatography.

pIC50: −log10 of the molar value. In brackets after ≈: the same amount, converted by molar mass.

Chain of human histamine 4 receptor (hH4R) (Q9H3N8 whole entry): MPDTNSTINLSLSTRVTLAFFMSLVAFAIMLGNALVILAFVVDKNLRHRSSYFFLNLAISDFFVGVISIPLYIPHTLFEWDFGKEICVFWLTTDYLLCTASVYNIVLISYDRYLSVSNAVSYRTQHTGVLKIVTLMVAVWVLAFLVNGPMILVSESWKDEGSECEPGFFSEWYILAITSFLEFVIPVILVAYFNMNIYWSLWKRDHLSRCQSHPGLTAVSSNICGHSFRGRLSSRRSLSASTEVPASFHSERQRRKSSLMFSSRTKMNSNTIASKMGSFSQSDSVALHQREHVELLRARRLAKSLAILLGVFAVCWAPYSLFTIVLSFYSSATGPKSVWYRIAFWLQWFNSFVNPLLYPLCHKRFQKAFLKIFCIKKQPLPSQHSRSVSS

In the case of `Cc1cnc2nc(N3CCN(C)CC3)c3nncn3c2c1` [Compound 2, 8-Methyl-4-(4-methylpiperazin-1-yl)pyrido[2,3-e][1,2,4]triazolo[4,3-a]pyrazine], the negative logarithm of the IC50 (pIC50) is 6.30 in data set [1] and below 4.00 in data set [2].
As to `CCOc1nc2nc(N3CCN(C)CC3)c3nncn3c2cc1Cl` [Compound 23, 8-Chloro-7-ethoxy-4-(4-methylpiperazin-1-yl)pyrido[2,3-e][1,2,4]triazolo[4,3-a]pyrazine], the negative-log IC50 (pIC50) was 6.85 in data set [1] and below 4.00 in data set [2].
For the compound `CNC1CN(c2nc3nc(C#N)c(Cl)cc3n3cnnc23)C1` [Compound 28, 8-Chloro-4-(3-(methylamino)azetidin-1-yl)pyrido[2,3-e][1,2,4]triazolo[4,3-a]pyrazin-7-carbonitrile], the values for the pIC50 in data set [1] and in data set [2] were 6.31 and below 4.00, respectively.
`CN1CCN(c2nc3ncc(Cl)cc3c3ncnn23)CC1` [Compound 35, 9-Chloro-5-(4-methylpiperazin-1-yl)pyrido[3,2-e][1,2,4]triazolo[1,5-c]pyrimidine] showed a pIC50 in data set [1] of 6.77.
As to `CN1CCN(c2nc3ncc(Cl)cc3c3cn(C)nc23)CC1` [Compound 43, 8-Chloro-2-methyl-4-(4-methylpiperazin-1-yl)-2H-pyrazolo[3,4-c][1,8]naphthylidine], the negative logarithm of the IC50 (pIC50) in data set [1] was 7.15; in data set [2], 4.01.
For `CN1CCN(c2nc3ncc(Cl)cc3n3ccnc23)CC1` [Compound 46, 8-Chloro-4-(4-methylpiperazin-1-yl)imidazo[1,2-a]pyrido[2,3-e]pyrazine], in data set [1], the pIC50 was 6.81. In data set [3], this compound gave a solubility at 1 h of 1910 µg/mL (≈ 6.32 mM) and a solubility at 2 h of 1100 µg/mL (≈ 3.64 mM).
`Clc1cnc2nc(N3CCNCC3)c3nccn3c2c1` [Compound 47, 8-Chloro-4-(piperazin-1-yl)imidazo[1,2-a]pyrido[2,3-e]pyrazine]: in data set [1], the negative-log IC50 (pIC50) was 6.21.
`CN1CCN(c2nc3ncc(I)cc3n3cnnc23)CC1` [Compound 49, 8-Iodo-4-(4-methylpiperazin-1-yl)pyrido[2,3-e][1,2,4]triazolo[4,3-a]pyrazine]: the pIC50 in data set [1] is 7.47; in data set [2], below 4.00.
The like results for `CNC1CN(c2nc3ncc(C(F)F)cc3n3cnnc23)C1` [Compound 51, 1-(8-(Difluoromethyl)pyrido[2,3-e][1,2,4]triazolo[4,3-a]pyrazin-4-yl)-N-methylazetidin-3-amine] were, in that order, 6.15 and below 4.00.
Taken in the same sequence, the figures for `C=Cc1cnc2nc(N3CC(NC)C3)c3nncn3c2c1` [Compound 55, N-Methyl-1-(8-vinylpyrido[2,3-e][1,2,4]triazolo[4,3-a]pyrazin-4-yl)azetidin-3-amine] were 6.59 and below 4.00.
The like results for `COc1nc2nc(N3CCN(C)CC3)c3nncn3c2cc1Cl` [Compound 60, 8-Chloro-7-methoxy-4-(4-methylpiperazin-1-yl)pyrido[2,3-e][1,2,4]triazolo[4,3-a]pyrazine] were, in that order, 6.21 and below 4.00.
Regarding `CCOc1nc2nc(N3CCNCC3)c3nncn3c2cc1Cl` [Compound 63, 8-Chloro-7-ethoxy-4-(piperazin-1-yl)pyrido[2,3-e][1,2,4]triazolo[4,3-a]pyrazine], the pIC50 was 6.24 in data set [1] and below 4.00 in data set [2].
Taken in the same sequence, the figures for `CN1CCN(c2nc3nc(OCC(F)(F)F)c(Cl)cc3n3cnnc23)CC1` [Compound 64, 8-Chloro-4-(4-methylpiperazin-1-yl)-7-(2,2,2-trifluoroethoxy)pyrido[2,3-e][1,2,4]triazolo[4,3-a]pyrazine] were 6.62 and below 4.00.
Turning to `Cc1c(Br)cnc2nc(N3CCN(C)CC3)c3nncn3c12` [Compound 66, 8-Bromo-9-methyl-4-(4-methylpiperazin-1-yl)pyrido[2,3-e][1,2,4]triazolo[4,3-a]pyrazine], in data set [1], the pIC50 was 6.52.
For `CNC1CN(c2nc3ncc(Cl)c(Cl)c3n3cnnc23)C1` [Compound 67, 1-(8,9-Dichloropyrido[2,3-e][1,2,4]triazolo[4,3-a]pyrazin-4-yl)-N-methylazetidin-3-amine], the results for the pIC50 in data set [1] and in data set [2] were 6.50 and below 4.00, respectively.
In data set [3], `CNC1CN(c2nc3ncc(Cl)cc3c3oc(C)nc23)C1` [Compound 91, 1-(8-Chloro-2-methyloxazolo[4,5-c][1,8]naphthylidine-4-yl)-N-methylazetidin-3-amine] gave a solubility at 1 h of 1840 µg/mL (≈ 6.04 mM) and a solubility at 2 h of 1940 µg/mL (≈ 6.4 mM). The compound also showed a pIC50 in data set [2] below 4.00.
In data set [1], `CN1CCN(c2nc3ncc(Cl)cc3n3nnnc23)CC1` [Compound 94, 8-Chloro-4-(4-methylpiperazin-1-yl)pyrido[2,3-e]tetrazolo[1,5-a]pyrazine] had a pIC50 of 7.21.
On the same count and under the same terms, the result for `CN1CCN(c2nc3ncc(Br)cc3n3nnnc23)CC1` [Compound 96, 8-Bromo-4-(4-methylpiperazin-1-yl)pyrido[2,3-e]tetrazolo[1,5-a]pyrazine] reads 7.55.
On to `Cc1nc2nc(N3CCN(C)CC3)c3nncn3c2cc1Br` [Compound 100, 8-bromo-7-methyl-4-(4-methylpiperazin-1-yl)pyrido[2,3-e][1,2,4]triazolo[4,3-a]pyrazine], for which the figures for the pIC50 in data set [1] and in data set [2] were 6.64 and below 4.00, respectively.
In turn, `CNC1CN(C2=Nc3ncc(Br)cc3N3C[C@H](C)N=C23)C1` [Compound 105, (S)-1-(8-bromo-2-methyl-1,2-dihydroimidazo[1,2-a]pyrido[2,3-e]pyrazin-4-yl)-N-methylazetidin-3-amine] had a pIC50 in data set [2] below 4.00.
The same measure, in the same setting: the result for `CNC1CN(C2=Nc3ncc(Br)cc3N3C[C@@H](C)N=C23)C1` [Compound 106, (R)-1-(8-bromo-2-methyl-1,2-dihydroimidazo[1,2-a]pyrido[2,3-e]pyrazin-4-yl)-N-methylazetidin-3-amine] reads below 4.00; that for `CNC1CN(c2nc3ncc(Br)cc3n3cc(C)nc23)C1` [Compound 108, 1-(8-bromo-2-methylimidazo[1,2-a]pyrido[2,3-e]pyrazin-4-yl)-N-methylazetidin-3-amine], below 4.00.
On to `CNC1CN(c2nc3ncc(Br)cc3c3cc(C)nn23)C1` [Compound 109, 1-(9-bromo-2-methylpyrazolo[1,5-c]pyrido[3,2-e]pyrimidin-5-yl)-N-methylazetidin-3-amine], for which the pIC50 in data set [2] was below 4.00.
Still for that read-out and setting: to `CNC1CN(c2nc3ncc(N)cc3n3cnnc23)C1` [Compound 112, 4-(3-(methylamino)azetidin-1-yl)pyrido[2,3-e][1,2,4]triazolo[4,3-a]pyrazin-8-amine] belongs below 4.00; to `CNC1CN(c2nc3ncc(-c4ccccc4)cc3n3cnnc23)C1` [Compound 113, N-methyl-1-(8-phenylpyrido[2,3-e][1,2,4]triazolo[4,3-a]pyrazin-4-yl)azetidin-3-amine], below 4.00; to `CNC1CN(c2nc3ncc(-c4ccco4)cc3n3cnnc23)C1` [Compound 114, 1-(8-(furan-2-yl)pyrido[2,3-e][1,2,4]triazolo[4,3-a]pyrazin-4-yl)-N-methylazetidin-3-amine], below 4.00.
Same read-out and setting: to `CNC1CN(c2nc3ncc(Br)cc3n3cccc23)C1` [Compound 115, 1-(2-bromopyrido[2,3-e]pyrrolo[1,2-a]pyrazin-6-yl)-N-methylazetidin-3-amine] belongs below 4.00.
For the compound `CNC1CN(c2nc3cnc(Cl)cc3n3cnnc23)C1` [Compound 117, 1-(8-chloropyrido[3,4-e][1,2,4]triazolo[4,3-a]pyrazin-4-yl)-N-methylazetidin-3-amine], the values for the pIC50 in data set [1] and in data set [2] were 6.68 and below 4.00, respectively.

As usually defined, the pIC50 is the negative decadic logarithm of the IC50, by convention in mol/L. The term solubility denotes how much of the substance goes into solution per volume. Low values mean a poorly soluble substance, high ones a readily soluble substance.
